# Measured values from US20050026853A1, “Anti-viral 7-deaza D-nucleosides and uses thereof” (Micrologix Biotech Inc., priority 2002, published 2005).
# What was measured:
# [1] = overall biopharmaceutical properties / oral availability
# [2] = test system: HBV; assay: HBV cell-based assay; parameters: species or system hepatitis B virus
# Excerpt: As described herein, compounds of the instant invention show surprising and exceptionally strong inhibition of viral replication, particularly HBV. […] In certain embodiments, the invention provides compounds capable of inhibiting viral replication, preferably HBV, at clinically relevant concentrations.
# HBV cell-based assays for the evaluation of anti-viral activity against HBV are known in the art (see, e.g., Korba et al., Antiviral Res. 15:217, 1991; and Korba et al., Antiviral Res. 19:55, 1992). Moreover, the compounds of the invention can be useful research tools for in vitro and cell-based assays to study the biological mechanisms of viral infection, growth, and replication, preferably for HBV. By way of background and not wishing to be bound by theory, HBV replication is unusual in that this virus has a partially […] circular DNA (all of the minus DNA strand and part of the plus strand), but replicates by way of an RNA intermediate (typically, single-stranded viral DNA is converted to double stranded DNA, which serves as the template for viral replication). That is, when the virus enters the cell, the minus-strand DNA is transported to the cell nucleus, plus strand RNA is then transcribed from the DNA, the RNA is transported to the cytoplasm, and reverse transcriptase then synthesizes viral DNA from the RNA for packaging. […]
smiles,measurement,setting,value
"Nc1ncnc2c1c(F)cn2[C@H]1CC(O)[C@@H](CO)O1 (stereo partly drawn) [structure (II), 4-amino-5-fluoro-7-(2′-deoxy-β-D-erythro-pentofuranosyl) pyrrolo[2,3-d]pyrimidine]",oral availability,[1],orally available
same,overall biopharmaceutical properties,[1],good overall biopharmaceutical properties
same,anti-viral activity against HBV,[2],exhibit anti-viral activity against HBV
